From patent US20120028897A1, “METHODS AND COMPOSITIONS FOR THE TREATMENT OF FLUID RETENTION DISORDERS” (priority 2008, published 2012)
“Also recorded” adds a separate entry of the source.

Assays:
[1] = test system: anesthetized rats; assay: Renal potassium excretion during and after iv peptide infusion in anesthetized rats; assay type: in vivo, rat
Procedure: (§1) Rats were not fasted prior to clearance experiments and ranged in weight from 250-340 g at the time of study. Anesthesia was induced with an intraperitoneal injection of pentobarbital sodium (55 mg/kg BW) and maintained at a surgical plane by intermittent intravenous supplementation. Core temperature was maintained at 37° C. by a servo-controlled, heated operating table. Animals breathed spontaneously through a PE240 cannula inserted into the trachea. A jugular vein was catheterized with PE50 cannula tubing for intravenous infusion of isotonic saline containing FITC-labeled inulin (0.4% W/V, Sigma, St Louis Mo.) and two PE10 cannulae, one for supplemental anesthetic and the other for peptide infusions (described below in the experimental protocol section). The ureters were exposed through a midline ventral incision and cannulated with PE10 tubing about one cm from each kidney. Urine was collected over 20 min periods and the volume estimated by weight. A femoral artery was cannulated with PE50 tubing for continuous measurement of arterial blood pressure and intermittent blood samples (50 μl), taken at the mid point of each urine collection.
(§2) Arterial blood pressure was measured with a pressure transducer connected to a cardiovascular analyzer (Model 50110, Stoelting Instruments Wood Dale, Ill.). Left renal blood flow was measured in some rats with a flow probe positioned on the left renal artery and connected to a blood flow monitor (model 1 PRB probe and model T420 monitor, Transonic Systems Inc. Ithaca N.Y.). Arterial pressure, heart rate, and renal blood flow were digitized with an A/D converter (Keithley instruments, Cleveland, Ohio Model KUSB 3100) for display and storage on a Windows-based personal computer using open layers data acquisition software (Dtx_Ez, Data Translation Inc, Marlboro, Mass.). Sodium and potassium concentrations in plasma and urine were measured by flame photometry (Model 943, Instrumentation Laboratory Co., Lexington Mass.). Glomerular filtration rate (GFR) was measured as the renal clearance rate of FITC-labeled inulin
(§3) After post-surgical equilibration (−60 min) and three 20 min control clearance periods, huUgnA or B was infused into the jugular vein at 10 μl/min over a 60 min period, followed by a return to isotonic saline for the remainder of the experiment. The infused doses of huUgnA were 12, 25, 50, 100, or 200 nmol/kg BW in a total of 38 rats; huUgnB doses were 9, 18, 35, 70, and 140 nmol/kg BW in 35 rats. A UgnA mimetic, E. coli STh (ST-core), was infused into a third group of 32 rats at doses of 17, 32, 66, 133, and 266 nmol/kg. Renal excretory responses to these infusions were slow to develop and long lasting, so clearance periods were continued for 2-3 hr after the termination of the peptide infusion. This protracted time course limited protocols to one dose of one peptide in each rat. A control group of 10 rats received isotonic saline at 10 μl/min in place of the peptide infusion, but was otherwise treated in the same way as the experimental groups.
Sodium and potassium excretion rates are expressed as absolute values (UNaV and UKV) or factored by filtered load to provide fractional excretion (FENa and FEK). Glomerular filtration rate (GFR) was equated with inulin clearance. The net natriuretic response to peptide infusions was assessed by summing total Na excretion during infusion and post-infusion collection periods in each rat after subtraction of corresponding mean values obtained from the control group. The cumulative net excretion obtained in this way provides a measure of the natriuretic response to each dose of peptide infused. Results from both kidneys were averaged for each rat before calculating group means±sem.
Group comparisons were made with one way analysis of variance (ANOVA) using peptide doses as column variables. […]

[2] = test system: anesthetized rats; assay: Renal sodium excretion during and after iv peptide infusion in anesthetized rats; assay type: in vivo, rat
Procedure: as §1
All rats received a continuous intravenous infusion (10 μl/min/100 g BW) of isotonic saline containing FITC-labeled inulin for measurement of inulin clearance. Uncongugated FITC label and small inulin polymers were removed from the inulin solution by overnight dialysis against isotonic saline (SpectraPor 6 dialysis membrane, 1 kDa cutoff-limit, Spectrum Laboratories, Rancho Domingo, Calif.). Undissolved particulates were removed from the solution by filtration through a […] filter before each experiment (Steriflip, Millipore Inc. Billerica, Mass.). At least one hr was allowed for equilibration before the start of urine collections, at which point plasma inulin concentration had stabilized at an average value of 30±3 μg/ml.
as §2, §3
The effects of combined infusions of huUgnA and B were investigated in two groups of rats that received 35 nmol/kg of huUgnB together with either 25 nmol/kg (n=5) or 100 nmol/kg of huUgnA (n=5). […]

[3] = huUgnB 70 nmol, Post-infuse, * p<0.05 vs time control
[4] = huUgnB 140 nmol, Post-infuse, ** p<0.01 vs time control
[5] = huUgnB 35 nmol, Post-infuse, *** p<0.005 vs time control

For `CC(C)C[C@H](NC(=O)[C@@H]1CSSC[C@@H]2NC(=O)[C@H](CC(C)C)NC(=O)[C@H](CCC(=O)O)NC(=O)[C@@H](NC(=O)[C@H](CC(=O)O)NC(=O)[C@H](CC(=O)O)NC(=O)[C@@H](N)CC(N)=O)CSSC[C@H](NC(=O)[C@H](C)NC(=O)[C@H](C(C)C)NC(=O)[C@H](CC(N)=O)NC(=O)[C@H](C(C)C)NC2=O)C(=O)N[C@@H]([C@@H](C)O)C(=O)NCC(=O)N1)C(=O)O` (single isomer, unassigned) [huUgnB, Asn Asp Asp Cys Glu Leu Cys Val Asn Val Ala Cys Thr Gly Cys Leu], the “FEK (fractional potassium excretion)” value ([1]; huUgnB 9 nmol, Infuse) was 30.6 ± 6.1 % of filtered, the “UKV (potassium excretion)” value ([1]; huUgnB 9 nmol, Infusion) was 840 ± 83 nEq/min/g KW and the “FEK (fractional potassium excretion)” value ([1]; huUgnB 9 nmol, Post-infuse) was 34.8 ± 3.1 % of filtered. The “UKV (potassium excretion)” value ([1]; huUgnB 9 nmol, Post-infuse) was 943 ± 82 nEq/min/g KW, the “FEK (fractional potassium excretion)” value ([1]; huUgnB 9 nmol, Pre-infuse) was 23.4 ± 6.0 % of filtered and the “UKV (potassium excretion)” value ([1]; huUgnB 9 nmol, Pre-infuse) was 655 ± 79 nEq/min/g KW. The “FEK (fractional potassium excretion)” value ([1]; huUgnB 18 nmol, Infuse) was 29.6 ± 3.2 % of filtered, the “UKV (potassium excretion)” value ([1]; huUgnB 18 nmol, Infusion) was 860 ± 72 nEq/min/g KW and the “FEK (fractional potassium excretion)” value ([1]; huUgnB 18 nmol, Post-infuse) was 39.2 ± 2.6 % of filtered. For the same molecule, the “UKV (potassium excretion)” value ([1]; huUgnB 18 nmol, Post-infuse) was 1014 ± 79 nEq/min/g KW, the “FEK (fractional potassium excretion)” value ([1]; huUgnB 18 nmol, Pre-infuse) was 20.0 ± 2.3 % of filtered and the “UKV (potassium excretion)” value ([1]; huUgnB 18 nmol, Pre-infuse) was 592 ± 71 nEq/min/g KW. The “FEK (fractional potassium excretion)” value ([1]; huUgnB 35 nmol, Infuse) was 32.6 ± 3.7 % of filtered, the “UKV (potassium excretion)” value ([1]; huUgnB 35 nmol, Infusion) was 837 ± 84 nEq/min/g KW and the “FEK (fractional potassium excretion)” value ([1]; huUgnB 35 nmol, Post-infuse) was 38.9 ± 3.0 % of filtered. The “UKV (potassium excretion)” value ([1]; huUgnB 35 nmol, Post-infuse) was 998 ± 85 nEq/min/g KW, the “FEK (fractional potassium excretion)” value ([1]; huUgnB 35 nmol, Pre-infuse) was 25.7 ± 2.4 % of filtered and the “UKV (potassium excretion)” value ([1]; huUgnB 35 nmol, Pre-infuse) was 729 ± 79 nEq/min/g KW. For the same molecule, the “FEK (fractional potassium excretion)” value ([1]; huUgnB 70 nmol, Infuse) was 37.7 ± 9.8 % of filtered, the “UKV (potassium excretion)” value ([1]; huUgnB 70 nmol, Infusion) was 1297 ± 209 nEq/min/g KW and the “FEK (fractional potassium excretion)” value ([1]; huUgnB 70 nmol, Post-infuse) was 47.1 ± 5.6 % of filtered. The “UKV (potassium excretion)” value [1, 3] was 1491 ± 183* nEq/min/g KW, the “FEK (fractional potassium excretion)” value ([1]; huUgnB 70 nmol, Pre-infuse) was 20.4 ± 5.5 % of filtered and the “UKV (potassium excretion)” value ([1]; huUgnB 70 nmol, Pre-infuse) was 791 ± 265 nEq/min/g KW. The “FEK (fractional potassium excretion)” value ([1]; huUgnB 140 nmol, Infuse) was 49.2 ± 3.6 % of filtered, the “UKV (potassium excretion)” value ([1]; huUgnB 140 nmol, Infusion) was 1086 ± 124 nEq/min/g KW and the “UKV (potassium excretion)” value ([1]; huUgnB 140 nmol, Post-infuse) was 1396 ± 89 nEq/min/g KW. The “FEK (fractional potassium excretion)” value [1, 4] was 58.4 ± 3.5** % of filtered, the “FEK (fractional potassium excretion)” value ([1]; huUgnB 140 nmol, Pre-infuse) was 28.3 ± 0.9 % of filtered and the “UKV (potassium excretion)” value ([1]; huUgnB 140 nmol, Pre-infuse) was 770 ± 78 nEq/min/g KW. For the same molecule, the FEK vs control ([1]; post infusion period, only after the highest doses) was “increased over control levels”, the “net cumulative sodium excretion, co-infusion” value ([2]; huUgnA 25 nmol/kg combined with huUgnB 35 nmol/kg) was “did not produce an additive response; also recorded: not different from the natriuresis evoked by A25 or B35 alone” and the “net cumulative sodium excretion, co-infusion” value ([2]; huUgnA 100 nmol/kg combined with huUgnB 35 nmol/kg) was “almost completely suppressed; also recorded: significantly less than the response to B35 alone”. For the same molecule, the “FENa (fractional sodium excretion)” value ([2]; huUgnB 9 nmol, Infuse) was 0.09 ± 0.02 % of filtered, the “UNaV (sodium excretion)” value ([2]; huUgnB 9 nmol, Infusion) was 134.6 ± 53 nEq/min/g KW and the “FENa (fractional sodium excretion)” value ([2]; huUgnB 9 nmol, Post-infuse) was 0.21 ± 0.04 % of filtered. The “UNaV (sodium excretion)” value ([2]; huUgnB 9 nmol, Post-infuse) was 195 ± 37 nEq/min/g KW, the “FENa (fractional sodium excretion)” value ([2]; huUgnB 9 nmol, Pre-infuse) was 0.05 ± 0.01 % of filtered and the “UNaV (sodium excretion)” value ([2]; huUgnB 9 nmol, Pre-infuse) was 67 ± 17 nEq/min/g KW. For the same molecule, the “FENa (fractional sodium excretion)” value ([2]; huUgnB 18 nmol, Infuse) was 0.12 ± 0.03 % of filtered, the “UNaV (sodium excretion)” value ([2]; huUgnB 18 nmol, Infusion) was 155.2 ± 34 nEq/min/g KW and the “FENa (fractional sodium excretion)” value ([2]; huUgnB 18 nmol, Post-infuse) was 0.42 ± 0.08 % of filtered. The “UNaV (sodium excretion)” value ([2]; huUgnB 18 nmol, Post-infuse, *** p<0.005 vs time control) was 538 ± 81*** nEq/min/g KW, the “FENa (fractional sodium excretion)” value ([2]; huUgnB 18 nmol, Pre-infuse) was 0.07 ± 0.01 % of filtered and the “UNaV (sodium excretion)” value ([2]; huUgnB 18 nmol, Pre-infuse) was 83 ± 19 nEq/min/g KW. The “FENa (fractional sodium excretion)” value ([2]; huUgnB 35 nmol, Infuse) was 0.27 ± 0.07 % of filtered, the “UNaV (sodium excretion)” value ([2]; huUgnB 35 nmol, Infusion) was 229.4 ± 47 nEq/min/g KW and the “FENa (fractional sodium excretion)” value [2, 5] was 0.62 ± 0.10*** % of filtered. For the same molecule, the “UNaV (sodium excretion)” value [2, 5] was 729 ± 73*** nEq/min/g KW, the “FENa (fractional sodium excretion)” value ([2]; huUgnB 35 nmol, Pre-infuse) was 0.12 ± 0.02 % of filtered and the “UNaV (sodium excretion)” value ([2]; huUgnB 35 nmol, Pre-infuse) was 132 ± 40 nEq/min/g KW. The “FENa (fractional sodium excretion)” value ([2]; huUgnB 70 nmol, Infuse) was 0.24 ± 0.14 % of filtered, the “UNaV (sodium excretion)” value ([2]; huUgnB 70 nmol, Infusion) was 285.7 ± 165 nEq/min/g KW and the “FENa (fractional sodium excretion)” value [2, 3] was 0.52 ± 0.10* % of filtered. The “UNaV (sodium excretion)” value ([2]; huUgnB 70 nmol, Post-infuse, *** p<0.005 vs time control) was 696 ± 151*** nEq/min/g KW, the “FENa (fractional sodium excretion)” value ([2]; huUgnB 70 nmol, Pre-infuse) was 0.08 ± 0.03 % of filtered and the “UNaV (sodium excretion)” value ([2]; huUgnB 70 nmol, Pre-infuse) was 87 ± 31 nEq/min/g KW. For the same molecule, the “FENa (fractional sodium excretion)” value ([2]; huUgnB 140 nmol, Infuse) was 0.18 ± 0.05 % of filtered, the “UNaV (sodium excretion)” value ([2]; huUgnB 140 nmol, Infusion) was 212.1 ± 67 nEq/min/g KW and the “FENa (fractional sodium excretion)” value [2, 4] was 0.65 ± 0.11** % of filtered. For the same molecule, the “UNaV (sodium excretion)” value ([2]; huUgnB 140 nmol, Post-infuse, *** p<0.005 vs time control) was 906 ± 170*** nEq/min/g KW, the “FENa (fractional sodium excretion)” value ([2]; huUgnB 140 nmol, Pre-infuse) was 0.08 ± 0.01 % of filtered and the “UNaV (sodium excretion)” value ([2]; huUgnB 140 nmol, Pre-infuse) was 103 ± 8 nEq/min/g KW. The “ED50, net cumulative sodium excretion over three hours” value ([2]; infused over first hour, log agonist response curve, FIG. 6A) was 19 nmol/kg, the “ED50, net cumulative sodium excretion” value ([2]; log(agonist) vs response fit, p<0.02) was “about 20 nmol UgnB/kg BW” and the “UNaV time course, ANOVA vs control” value ([2]; post infusion periods after 18, 35, 70, and 140 nmol/kg (p<0.001 for all)) was “significant natriuretic response”. For the same molecule, the “doses producing significant natriuresis (net excretory values)” value ([2]; rat, in vivo) was “above 9 nmol” and the “shape of natriuretic dose-response relationship” value ([2]; rat, in vivo) was “conventional”.
